In test [1] the target is T1, Dipeptidyl peptidase 4 (Homo sapiens, UniProt P27487). The experiment in a line: Inhibition of human placental DPP4 at pH 2.
Test [2] deals with T1, Dipeptidyl peptidase 4. The experiment in a line: Inhibition of human placental DPP4 at pH 8.
In test [3] the target is T1, Dipeptidyl peptidase 4. The experiment in a line: Inhibition of human placental DPP4.

The structures appear in SMILES notation. pIC50, pKi: −log10 of the molar value.

T1 sequence (P27487 whole entry): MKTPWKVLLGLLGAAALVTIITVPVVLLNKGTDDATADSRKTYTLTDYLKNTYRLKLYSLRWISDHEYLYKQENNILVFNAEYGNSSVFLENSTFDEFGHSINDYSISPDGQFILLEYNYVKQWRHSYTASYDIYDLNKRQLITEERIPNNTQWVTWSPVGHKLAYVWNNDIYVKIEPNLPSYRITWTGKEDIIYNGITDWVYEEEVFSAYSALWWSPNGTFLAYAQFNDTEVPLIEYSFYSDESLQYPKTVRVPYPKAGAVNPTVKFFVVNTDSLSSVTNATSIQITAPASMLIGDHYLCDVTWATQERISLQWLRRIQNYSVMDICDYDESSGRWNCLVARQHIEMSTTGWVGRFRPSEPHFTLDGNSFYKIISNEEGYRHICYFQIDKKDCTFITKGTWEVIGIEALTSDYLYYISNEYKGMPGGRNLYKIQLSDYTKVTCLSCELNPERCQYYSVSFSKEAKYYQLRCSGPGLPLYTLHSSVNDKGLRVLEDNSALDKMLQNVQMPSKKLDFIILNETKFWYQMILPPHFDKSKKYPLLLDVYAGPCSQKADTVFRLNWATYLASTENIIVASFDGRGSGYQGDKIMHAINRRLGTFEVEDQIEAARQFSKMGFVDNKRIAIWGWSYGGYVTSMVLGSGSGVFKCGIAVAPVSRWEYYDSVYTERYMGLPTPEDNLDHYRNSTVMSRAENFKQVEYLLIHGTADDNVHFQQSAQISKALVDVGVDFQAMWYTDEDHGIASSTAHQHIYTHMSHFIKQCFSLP

`C[C@@H](B(O)O)N1CC[C@H](N)C1=O`: the pIC50 on Dipeptidyl peptidase 4 [1] was 6.32; on Dipeptidyl peptidase 4 [2] it was 6.34. The compound also gave a pKi at Dipeptidyl peptidase 4 [3] of 5.96.

As for `C[C@@H](B(O)O)N1CC[C@@H](N)C1=O`, the pIC50 was 8.28 at Dipeptidyl peptidase 4 [1] and 8.38 against Dipeptidyl peptidase 4 [2]. The same compound showed a pKi at Dipeptidyl peptidase 4 [3] of 8.64.

As usually defined, the pIC50 is −log10 of the IC50, conventionally taken in molar units. As a reminder, the pKi is the Ki on a negative log10 scale, so that one unit is a factor of ten.

The record behind these values is ChEMBL document CHEMBL1139886, “Synthesis and characterization of constrained peptidomimetic dipeptidyl peptidase IV inhibitors: amino-lactam boroalanines” (J Med Chem, 2007).
